Our source for the LogP and chromatographic logP values is US20200031778A1, “NOVEL 5-SUBSTITUTED IMIDAZOLYLMETHYL DERIVATIVES” (Bayer CropScience Aktiengesellschaft, priority 2016, published 2020).

The nature of this data set: Log P by HPLC on reversed phase columns (EEC directive 79/831 Annex V.A8; methods [a], [b], [c]). It counts as physicochemical. The procedure:
Measurement of Log P values was performed according to EEC directive 79/831 Annex V.A8 by HPLC (High Performance Liquid Chromatography) on reversed phase columns with the following methods: • ^[a] Log P value is determined by measurement of LC-UV, in an acidic range, with 0.1% formic acid in water and acetonitrile as eluent (linear gradient from 10% acetonitrile to 95% acetonitrile). • ^[b] Log P value is determined by measurement of LC-UV, in a neutral range, with 0.001 molar ammonium acetate solution in water and acetonitrile as eluent (linear gradient from 10% acetonitrile to 95% acetonitrile). • ^[c] Log P value is determined by measurement of LC-UV, in an acidic range, with 0.1% phosphoric acid and acetonitrile as eluent (linear gradient from 10% acetonitrile to 95% acetonitrile).
If more than one Log P value is available within the same method, all the values are given and separated by “+”.
Calibration was done with straight-chain alkan2-ones (with 3 to 16 carbon atoms) with known Log P values (measurement of Log P values using retention times with linear interpolation between successive alkanones). Lambda-max-values were determined using UV-spectra from 200 nm to 400 nm and the peak values of the chromatographic signals.

The mark [1] stands for this setting: reversed phase HPLC column, method [a]: LC-UV, acidic range, 0.1% formic acid in water and acetonitrile as eluent (linear gradient from 10% to 95% acetonitrile).

Take `CC(O)(Cn1cncc1Br)c1ccc(Oc2ccc(C(F)(F)F)cc2)cc1C(F)(F)F` (stereo not drawn) [I-199]: the LogP is 2.98^[a].
As for `CCC(O)(Cn1cncc1C#N)c1ccc(Cl)cc1Cl` (stereo not drawn) [I-301], the LogP is 2.66^[a].
On the same count and under the same terms, as for `CCCC(O)(Cn1cncc1C#N)c1ccc(Br)cc1Cl` (stereo not drawn) [I-423], the figure is 3.19^[a]; as for `C[Si](C)(C#CC(O)(Cn1cncc1C#N)C1(Cl)CC1)c1ccccc1` (stereo not drawn) [I-594], 3.31^[a]; as for `CC(C)C(O)(Cn1cncc1C#N)c1ccc(Cl)cc1` (stereo not drawn) [I-288], 2.31^[a].
Still for that read-out and setting: as for `C#CC(O)(Cn1cncc1C#N)C1(F)CC1` (stereo not drawn) [I-654], the figure is 1.11^[a].
Same read-out and setting: in the case of `CCCC(O)(Cn1cncc1C#N)c1ccc(Cl)cc1F` (stereo not drawn) [I-401] it was 2.78^[a]; in that of `CC(C)(C)CC(O)(Cn1cncc1C#N)c1ccc(Cl)cc1` (stereo not drawn) [I-223], 3.11^[a].
On to `OC(Cn1cncc1F)c1ccc(Oc2ccc(Br)cc2)nc1C(F)(F)F` (stereo not drawn) [I-103], for which the LogP is 2.28^[a].
Still for that read-out and setting: as for `N#Cc1cncn1CC(O)(c1cc(Cl)c(F)cc1Br)C1(F)CC1` (stereo not drawn) [I-687], the figure is 2.61^[a].
Same read-out and setting: as for `CC(C)(C)C(O)(Cn1cncc1C#N)c1ccc(F)cc1F` (stereo not drawn) [I-385], the figure is 2.71^[a]; as for `N#Cc1cncn1CC(O)(CC1CC1)c1ccc(Cl)c(Cl)c1` (stereo not drawn) [I-488], 2.78^[a].
For `N#Cc1cncn1CC(O)(c1ccc(F)cc1Cl)C1CC1` (stereo not drawn) [I-412], the LogP was 2.41^[a].
Still for that read-out and setting: as for `N#Cc1cncn1CC(O)(C#Cc1ccccc1)C1(F)CC1` (stereo not drawn) [I-371], the figure is 2.20^[a]; as for `C#Cc1ccc(C(O)(Cn2cncc2C#N)C2(Cl)CC2)c(F)c1` (stereo not drawn) [I-659], 2.42^[a]; as for `N#Cc1cncn1CC(O)(c1c(F)cccc1Cl)C1(Cl)CC1` (stereo not drawn) [I-339], 2.32^[a].
The same measure, in the same setting: in the case of `N#Cc1cncn1CC(O)(c1c(F)cccc1Cl)C1(F)CC1` (stereo not drawn) [I-434] it was 2.08^[a]; in that of `N#Cc1cncn1CC(O)(c1cc(F)c(Cl)c(Cl)c1)C1(F)CC1` (stereo not drawn) [I-535], 2.78^[a].
Still for that read-out and setting: as for `COC(Cn1cncc1C#N)c1ccc(Oc2ccccc2)cc1F` (stereo not drawn) [I-100], the figure is 3.23^[a]; as for `N#Cc1cncn1CC(O)(c1cc(F)cc(Br)c1)C1(F)CC1` (stereo not drawn) [I-537], 2.51^[a]; as for `CCCC(O)(Cn1cncc1C#N)c1ccccc1C(F)(F)F` (stereo not drawn) [I-313], 2.66^[a].
Consider `N#Cc1cncn1CC(O)(c1cc(F)c(Cl)cc1Br)C1(F)CC1` (stereo not drawn) [I-525], for which the LogP was 2.65^[a].
Take `N#Cc1cncn1CC(O)(c1ccc(Cl)cc1Cl)C1(Cl)CC1` (stereo not drawn) [I-235]: the LogP is 2.67^[a].
Same read-out and setting: in the case of `N#Cc1cncn1CC(O)(CC1CCCCC1)c1ccc(F)cc1F` (stereo not drawn) [I-466] it was 3.44^[a].
Same read-out and setting: as for `N#Cc1cncn1CC(O)(C#CC1(c2ccccc2)CC1)C1(Cl)CC1` (stereo not drawn) [I-606], the figure is 2.90^[a].
On the same count and under the same terms, as for `CC(O)(Cn1cncc1C#N)c1cnc(Oc2ccc(Cl)cc2)cc1C(F)(F)F` (stereo not drawn) [I-249], the figure is 3.44^[a].
On to `OC(Cn1cncc1Cl)c1ccc(Oc2ccc(F)cc2)cc1Cl` (stereo not drawn) [I-03], for which the LogP was 2.28^[a].
On the same count and under the same terms, as for `N#Cc1cncn1CC(O)(c1ccc(C#CC2CCCC2)cc1Cl)C1(Cl)CC1` (stereo not drawn) [I-656], the figure is 4.15^[a]; as for `Cc1cc(C(O)(Cn2cncc2C#N)C2(F)CC2)c(F)cc1Cl` (stereo not drawn) [I-507], 2.66^[a].
In the case of `CC(=O)OC(Cn1cncc1C#N)c1ccc(Oc2ccc(Cl)cc2)cc1C(F)(F)F` (stereo not drawn) [I-86], the LogP was 3.7^8[a].
On the same count and under the same terms, as for `N#Cc1cncn1CC(=O)c1ccc(Oc2ccc(S(F)(F)(F)(F)F)cc2)nc1C(F)(F)F` [IX-135], the figure is 3.55^[a].
As to `CC(O)(Cn1cncc1C#N)c1ccc(Oc2ccc(Br)cc2)cc1F` (stereo not drawn) [I-191], the LogP was 3.29^[a].
Same read-out and setting: as for `N#Cc1cncn1CC(O)(c1ccc(F)cc1Br)C1CCC1` (stereo not drawn) [I-449], the figure is 2.86^[a].
Still for that read-out and setting: as for `CC(C)(C)C(O)(Cn1cncc1Cl)c1cc2cc(OC(F)(F)F)ccc2o1` (stereo not drawn) [I-215], the figure is 2.75^[a]; as for `N#Cc1cncn1CC(O)(c1cc(Cl)cc(Cl)c1Cl)C1(F)CC1` (stereo not drawn) [I-612], 2.66^[a].
On to `O=C(Cn1cncc1Br)c1ccc(F)cc1F` [IX-121], for which the chromatographic logP under setting [1] worked out at 1.32.
Regarding `N#Cc1cncn1CC(O)(c1cccc(F)c1F)C1(F)CC1` (stereo not drawn) [I-524], the LogP is 2.02^[a].
Still for that read-out and setting: as for `CC(=O)OC(Cn1cncc1F)c1ccc(Oc2ccc(Cl)cc2)cc1C(F)(F)F` (stereo not drawn) [I-104], the figure is 3.18^[a].
Same read-out and setting: in the case of `N#Cc1cncn1CC(O)(c1cnc(Cl)cc1Br)C1(F)CC1` (stereo not drawn) [I-560] it was 1.98^[a]; in that of `N#Cc1cncn1CC(O)(c1ccc(Br)cc1Cl)C1CC1` (stereo not drawn) [I-420], 2.88^[a]; in that of `CC1(C(O)(Cn2cncc2C#N)c2ccc(F)cc2F)CC1` (stereo not drawn) [I-440], 2.37^[a].
Turning to `CC(C)(C)CC(O)(Cn1cncc1C#N)c1ccc(OC(F)(F)F)cc1` (stereo not drawn) [I-275], the LogP was 3.50^[a].
On the same count and under the same terms, as for `C[Si](C)(C)CC(O)(Cn1cncc1C#N)c1ccccc1Cl` (stereo not drawn) [I-306], the figure is 3.39^[a].
Take `CC(=O)c1cncn1CC(=O)c1ccc(Oc2ccc(Cl)cc2)nc1C(F)(F)F` [IX-119]: under setting [1], the chromatographic logP was determined as 3.13.
For `N#Cc1cncn1CC(O)c1ccc(Oc2ccc(I)cc2)cc1Cl` (stereo not drawn) [I-95], the LogP is 3.44^[a].
With `CCCCC(O)(Cn1cncc1C#N)c1ccc(F)cc1` (stereo not drawn) [I-228], the LogP is 2.47^[a].
For `N#Cc1cncn1CC(O)(CCCC(Cl)CCl)C1(F)CC1` (stereo not drawn) [I-678], the LogP was 2.54'^[a].
Still for that read-out and setting: in the case of `C[Si](C)(C)C#CC(O)(Cn1cncc1C(F)(F)F)C1(Cl)CC1` (stereo not drawn) [I-607] it was 3.52^[a]; in that of `N#Cc1cncn1CC(O)(C#CCC1CCCCC1)C1(F)CC1` (stereo not drawn) [I-539], 3.11^[a].
On the same count and under the same terms, as for `COC(Cn1cncc1F)c1ccc(Oc2ccc(Cl)cc2)cc1C(F)(F)F` (stereo not drawn) [I-108], the figure is 3.16^[a]; as for `CC(C)C(O)(Cn1cncc1C#N)c1ccc(Cl)cc1Cl` (stereo not drawn) [I-300], 2.92^[a]; as for `N#Cc1cncn1CC(O)(CC1CC1)c1ccc(F)cc1Br` (stereo not drawn) [I-443], 2.78^[a].
On the same count and under the same terms, in the case of `CC(C)(C)C(O)(Cn1cncc1C#N)c1ccc(Cl)cc1Cl` (stereo not drawn) [I-310] it was 3.37^[a]; in that of `N#Cc1cncn1CC(O)(c1ccc(F)cc1F)C1CCC1` (stereo not drawn) [I-447], 2.53^[a].
Consider `N#Cc1cncn1CC(O)c1cnc(Oc2ccc(C(F)(F)F)cc2)cc1Cl` (stereo not drawn) [I-127], for which the LogP is 2.96^[a].
Same read-out and setting: as for `N#Cc1cncn1CC(O)(c1cccc(Cl)c1Cl)C1(F)CC1` (stereo not drawn) [I-438], the figure is 2.39^[a].
`N#Cc1cncn1CC(O)(c1ccc(F)c(Cl)c1Cl)C1(F)CC1` (stereo not drawn) [I-624]: the LogP is 2.45^[a].
With `CCOC(Cn1cncc1Br)c1ccc(Oc2ccc(Cl)cc2)cc1C(F)(F)F` (stereo not drawn) [I-33], the LogP is 4.16^[a].
Same read-out and setting: as for `N#Cc1cncn1CC(O)(CCCC1CCCCC1)C1CC1` (stereo not drawn) [I-661], the figure is 3.83^[a]; as for `COC(Cn1cncc1Cl)c1ccc(Oc2ccc(Br)cc2)cc1Br` (stereo not drawn) [I-52], 3.76^[a].
Turning to `N#Cc1cncn1CC(O)(CC1CC1)c1cnc(Cl)cc1Cl` (stereo not drawn) [I-510], the LogP was 2.07^[a].
The same measure, in the same setting: as for `OC(Cn1cncc1Cl)c1ccc(Oc2ccc(Cl)nc2)cc1Cl` (stereo not drawn) [I-42], the figure is 1.86^[a].
`CC(O)(Cn1cncc1Br)c1ccc(Oc2ccc(Br)cc2)cc1Br` (stereo not drawn) [I-184]: the LogP is 3.06^[a].
Still for that read-out and setting: as for `N#Cc1cncn1CC(O)(c1ccc(Cl)cc1Br)C1CC1` (stereo not drawn) [I-405], the figure is 2.80^[a].
Still for that read-out and setting: as for `CC(O)(Cn1cncc1F)c1ccc(Oc2ccc(Cl)cc2)cc1Cl` (stereo not drawn) [I-194], the figure is 2.34^[a]; as for `CC(=O)c1cncn1CC(C)(O)c1cnc(Oc2ccc(C(F)(F)F)cc2)cc1Cl` (stereo not drawn) [I-246], 2.76^[a].
Molecule `C[Si](C)(C)C#CCOc1ccc(C(O)(Cn2cncc2C#N)C2(F)CC2)c(F)c1` (stereo not drawn) [I-415, 3-[2-(1-fluorocyclopropyl)-2-[2-fluoro-4-(3-trimethylsilylprop-2-ynoxy)phenyl]-2-hydroxy-ethyl]imidazole-4-carbonitrile] displayed a chromatographic logP (HPLC on reversed phase columns, method [a]) of 3.68.
`N#Cc1cncn1CC(O)c1ccc(Oc2ccc(Br)cn2)cc1Cl` (stereo not drawn) [I-70]: the LogP is 2.63^[a].
On the same count and under the same terms, in the case of `CCC(O)(Cn1cncc1C#N)c1ccccc1C(F)(F)F` (stereo not drawn) [I-329] it was 2.27^[a].
The same measure, in the same setting: as for `CCCC(O)(Cn1cncc1C#N)c1ccc(F)cc1F` (stereo not drawn) [I-400], the figure is 2.39^[a].
In turn, `N#Cc1cncn1CC(=O)c1cnc(Oc2ccc(C(F)(F)F)nc2)cc1C(F)(F)F` [IX-105] had a chromatographic logP under setting [1] of 2.82.
On to `N#Cc1cncn1CC(O)(c1ccc(Cl)c(Cl)c1F)C1(F)CC1` (stereo not drawn) [I-638], for which the LogP is 2.58^[a].
For `OC(Cn1cncc1Cl)c1ccc(Oc2cccnc2)cc1Cl` (stereo not drawn) [I-78], the LogP was 1.13^[a].
Same read-out and setting: in the case of `O=C(Cn1cncc1F)c1ccc(Oc2ccc(S(F)(F)(F)(F)F)cc2)nc1C(F)(F)F` [IX-136] it was 3.06^[a]; in that of `N#Cc1cncn1CC(O)(c1ccc(Br)nc1Cl)C1(F)CC1` (stereo not drawn) [I-683], 2.01^[a]; in that of `C/C=C(\C)C(O)(Cn1cncc1C#N)c1ccc(Cl)cc1F` (stereo not drawn) [I-397], 2.73^[a].
Same read-out and setting: as for `CC(C)(C)CC(O)(Cn1cncc1C#N)c1ccc2occc2c1` (stereo not drawn) [I-369], the figure is 2.88^[a].
Still for that read-out and setting: in the case of `CCOC(Cn1cncc1Cl)c1ccc(Oc2ccc(Br)cc2)cc1Br` (stereo not drawn) [I-58] it was 4.21^[a].

By chromatographic logP is commonly meant lipophilicity estimated from chromatographic retention. A higher chromatographic logP goes with a more lipophilic compound.
